Measured values as given in patent US20250248405A1, “COMBINATIONS FOR CONTROLLING POST-HARVEST PATHOGENS IN AGRICULTURAL PRODUCE AND METHOD OF USE THEREOF” (Decco Worldwide Post Harvest Holding BV, priority 2024, published 2025).

Experiments:
[1] = tested on: Candida oleophila strain O; test: Compatibility test on fungicide-amended PDA solid medium (colony count of biocontrol agent); format: cell-based; details: for Compatibility: Candida oleophila strain O 10^2-10^3 cfu/ml
Method: “Compatibility” as used herein the specification, means how well a fungicide mixes with other substances. It's important to know how two formulations interact with other to avoid problems like reduced effectiveness or increased toxicity and herein measured by the unaffected colony count of biocontrol agent upon mixing with chemical fungicides.
The disclosure will be illustrated with reference to the following examples: Compatibility of biocontrol agent: Candida oleophila strain O was tested with various preharvest and post-harvest fungicides to test if they have any negative effect on Candida oleophila strain activity. The dry mass of a single Candida oleophila cell, including strain O, is approximately 47.65 picograms (pg) (48 pg=48×10^−9 mg), which is a typical mass for a single yeast cell.
1 gram of biomass (10^10 cfu/gm) was activated in 100 ml of water for 45 minutes. 1 ml of the biomass suspension was mixed with 99 ml of lactate dilution (2 g calcium lactate diluted in 99 ml water). Biomass solution was further diluted to 100 and 1000 folds and 100 μl of the diluted biomass solution was plated on synthetic fungicide amended PDA (Potato dextrose agar) plates, which yields around 10^3 and 10^2 cfu/plate, respectively, in fully compatible mixtures. Plates were incubated at 23° C. and the growth of CFUs (colony forming units) and total number of Candida oleophila colonies were counted after 5-7 days.
Pesticide amended PDA plates were prepared by inoculating pesticide on a Potato dextrose agar plate at no treatment (control), standard (full dose) and reduced (half dose) depending on the treatments. For e.g., if a pesticide has standard dose concentration of 5 ppm, then plates were prepared at 0 ppm, 2.5 ppm and 5 ppm. with that pesticide.

[2] = tested on: Penicillium expansum; test: Artificial wound inoculation of Fuji apples, blue mold decay; format: in vivo; details: solo at full rate (TBZ 1.45 g/L, PYR 1.35 g/L, FDL 0.85 g/L, C. oleophila 0.33 g/L), control 94
Method: (§1) Several lab trials were conducted to test efficacy of Candida oleophila strain O against major post-harvest pathogens of pome (Blue mold: Penicillium expansum, Gray mold: Botrytis cinerea, Bull's eye rot: Neofabraea perennans and Mucor rot and to test synergistic interaction of Candida oleophila strain O with 3 post-harvest fungicides of pome fruits namely Fludioxonil (FDL), Pyrimethanil (PYR) and Thiabendazole (TBZ).
(§2) Candida oleophila strain O was applied solo and in combination with three different post-harvest fungicides at full rate (FR) and half label rate (HR) (for conventional fungicides) to study its compatibility and synergist interaction. Testing was done on artificially/lab inoculated and naturally infected fruits.
(§3) For artificial inoculations through wound, washed fruits were wounded twice at the stem end region and were kept for 30 mins to dry the juice from the wound site. Fruits were fully submerged in fungicide solutions for 1 min and then transferred to a perforated basket to drip dry. Fruits were the transferred to the fruit trays and were left to dry overnight. 5×10^4 fungal spores/mL spore suspension of post-harvest pathogens as indicated above was prepared for inoculation. 50 μL spore suspension was transferred in each wound using a pipette and was left to dry for 1 hr at room temperature. Fruits were stored in cold storage. Fruit decay was monitored periodically, when decay on control fruit was above 80%, the disease incidence and severity was evaluated on all the treatments.

[3] = tested on: Botrytis cinerea; test: Artificial wound inoculation of Fuji apples, gray mold decay; format: in vivo; details: solo at full rate (PYR 1.35 g/L, FDL 0.85 g/L, C. oleophila 0.33 g/L), control 47
Method: as §1, §2
as §3, with “50 μL spore suspension was transferred in each wound using a pipette and was left to dry for 1 hr at room temperature. Fruits were stored in cold storage.” left out

[4] = tested on: Neofabraea perennans; test: Artificial wound inoculation of Fuji apples, bull's eye rot decay; format: in vivo; details: solo at full rate (TBZ 1.45 g/L, PYR 1.35 g/L, FDL 0.85 g/L, C. oleophila 0.33 g/L), control 98
Method: as §1, §2, §3

[5] = tested on: Mucor sp.; test: Artificial wound inoculation of Fuji apples, Mucor rot decay; format: in vivo; details: solo at full rate (TBZ 1.45 g/L, PYR 1.35 g/L, FDL 0.85 g/L, C. oleophila 0.33 g/L), control 100
Method: as §1, §2, §3

[6] = tested on: Candida oleophila strain O; test: Compatibility test on fungicide-amended PDA solid medium (colony count of biocontrol agent); format: cell-based; details: Candida oleophila strain O 10^6 cfu/ml

| SMILES | Compatibility of Candida oleophila strain O with the fungicide (text summary of Table 1) [1] | Decay severity (%) Penicillium sp. [2] [%] | Decay severity (%) Neofabrea sp. [4] [%] | Decay severity (%) Mucor sp. [5] [%] | further results |
| --- | --- | --- | --- | --- | --- |
| O=C(Nc1ccccc1-c1ccc(Cl)cc1)c1cccnc1Cl [Boscalid] | compatible |  |  |  |  |
| [Cl-].[Cu+2].[Cu+2].[OH-].[OH-].[OH-] [Copper oxychloride] | compatible |  |  |  |  |
| O=S(=O)([O-])[O-].[Cu+2] [Copper sulphate] | compatible |  |  |  |  |
| N#Cc1c[nH]cc1-c1cccc2c1OC(F)(F)O2 [Fludioxonil] | compatible | 0 | 83 | 100 | Decay severity (%) Botrytis sp. [3]: 2% |
| Cn1cc(C(=O)Nc2ccccc2-c2cc(F)c(F)c(F)c2)c(C(F)F)n1 [Fluxapyroxad] | compatible |  |  |  | Compatibility ([1]; fungicide 300 g/L a.i., tested dosage 0.5-2 ppm): YES; Compatibility ([1]; fungicide 300 g/L a.i., tested dosage 0.9 ppm): YES |
| COC(=O)N(OC)c1ccccc1COc1ccn(-c2ccc(Cl)cc2)n1 [Pyraclostrobin] | compatible |  |  |  | Compatibility ([1]; fungicide 250 g/L a.i., tested dosage 2-8 ppm): YES |
| Cc1cc(C)nc(Nc2ccccc2)n1 [Pyrimethanil] | compatible | 7 | 70 | 100 | Decay severity (%) Botrytis sp. [3]: 7%; Compatibility ([6]; fungicide 600 g/L a.i., tested dosage 800 ppm): YES |
| c1ccc2[nH]c(-c3cscn3)nc2c1 [Thiabendazole] | compatible | 4 | 22 | 100 | Compatibility ([6]; fungicide 500 g/L a.i., tested dosage 200 ppm): YES |
| COC(=O)NC(=S)Nc1ccccc1NC(=S)NC(=O)OC [Thiophanate-methyl] | compatible |  |  |  |  |
